Patent US5663205A, “Pharmaceutical composition for use in glaucoma treatment” (Senju Pharmaceutical Co. Ltd., priority 1992, dated 1997)
Structures can show the parent of a compound that is named as a salt. Where two headings read alike, the source gives them in different places.

Assays:
[1] = Test Example 7 (1): acute toxicity test in mice; details: mouse, in vivo, read-out: 50% lethal dose (LD50)
Description: (1) Acute toxicity test of amosulalol hydrochloride with mice:
Investigation was conducted on the acute toxicity of amosulalol hydrochloride in mice through oral administration or intravenous administration.
Amosulalol was given to 7-weeks aged ICR mice by oral administration by use of an oral probe or through a tail vein.

choroidal blood flow = details: cited from earlier work
[2] = test system: Normal Intraocular Pressure; experiment: Test Example 2 (1): intraocular pressure reducing activity on normal intraocular pressure, pigmented rabbits; assay type: in vivo, pigmented rabbits (Dutch belted rabbits); details: 0.5% ophthalmic solution, treated eyes, 30 min and 1 hour after topical application
Description: Intraocular Pressure Reducing Activity of Amosulalol Hydrochloride on Normal Intraocular Pressure in Pigmented Rabbits Forty (40) male pigmented rabbits (Dutch belted rabbits) weighing about 2 kg, after having been confirmed to be free from ocular abnormalities, were bred in a breeding room maintained at a temperature of 24± 4° C. and at a relative humidity of 55± 15%, while they were fed solid food (Labo RG-RO, manufactured by Nihon Nohsan Kogyo K.K.) at a daily rate of 100 g per rabbit and allowed free access to tap water as drinking water. As a test drug, amosulalol hydrochloride was processed into 0.05%, 0.5% and 1.0% aqueous solutions which were used in the test, and 0.5% timolol maleate ophthalmic solution [Timoptol (registered trademark): Ban-yu Pharmaceutical Co.] and physiological saline were used as a positive control drug and a control substance, respectively. (1) Measurement of intraocular pressure: Forty (40) rabbits were divided into five groups. each consisting of 8 heads, and 50 μl of test drug as well as the control drug and physiological saline were applied topically to one eye each of the individual rabbits, with the other being left untreated. Before instillation and 0.5, 1, 2, 3, 4, 6 and 8 hours after topical application respectively, intraocular pressure for both eyes of each rabbit was measured using PTG. Time-course changes of intraocular pressure measurements taken with the eyes treated by instillation of each of the test drugs, control drug and physiological saline, are illustrated in FIGS. 2 (for treated eyes) and 3 (for non-treated eyes), respectively, with time (hour) after instillation taken as abscissa and intraocular pressure (mmHg) as ordinate; each value in mean ± S.E. (the number in each case is 8). The signs "a", "b", "c", "d" and "e" designate physiological saline, 0.05% aqueous solution of amosulalol hydrochloride, 0.5% aqueous solution of amosulalol hydrochloride, 1.0% aqueous solution of amosulalol hydrochloride and 0.5% solution of timolol maleate, respectively.

[3] = test system: Normal Intraocular Pressure; experiment: Test Example 1 (1): intraocular pressure reducing activity on normal intraocular pressure, pigmented rabbits; assay type: in vivo, pigmented rabbits (Dutch belted rabbits); details: 0.5% ophthalmic solution, 30 min and 1 hour after topical application
Description: Intraocular Pressure Reducing Activity of Amosulalol Hydrochloride on Normal Intraocular Pressure in Pigmented Rabbits Male pigmented rabbits (Dutch belted rabbits) weighing about 2 kg, after having been confirmed to be free from ocular abnormalities; were bred in a breeding room maintained at a temperature of 24± 4° C. and at a relative humidity of 55± 15%, while they were given solid food (Labo RG-RO manufactured by Nihon Nohsan Kogyo K.K.) at a daily rate of 100 g per rabbit and allowed free access to tap water as drinking water. As a test drug, amosulalol hydrochloride was processed into 0.05% (hereinafter, the term "%" is to be understood to designate "w/v %") and 1.0% aqueous solutions which were used in the test, and 0.5% timolol maleate ophthalmic solution [Timoptol (registered trademark): Ban-yu Pharmaceutical Co.] and physiological saline were used as a positive control drug and a control substance, respectively. (1) Measurement of intraocular pressure: Thirty two (32) rabbits were divided into four groups each consisting of 8 rabbits, and 50 μl of test drugs as well as the control drug and physiological saline were applied topically to one eye each of the individual rabbits, with the other being left untreated. Before instillation and 0.5, 1, 2, 3, 4, 6 and 8 hours after topical application,intraocular pressure for both of eyes of each rabbit was measured using a Pneumatonograph (manufactured by Alcon Co. Hereinafter referred to briefly as "PTG"). Shown in FIG. 1 are time-course changes of intraocular pressure taken with the eyes treated by instillation of each of the test drugs, control drug and physiological saline, with time (hour) after instillation taken as abscissa and intraocular pressure (mmHg as ordinate; each value in mean±S.E. (number of cases is 8). The signs "a", "b", "d" and "e" designate physiological saline, 0.05% aqueous solution of amosulalol hydrochloride, 1.0% aqueous solution of amosulalol hydrochloride, and 0.5% ophthalmic solution of timolol maleate, respectively.

With `COc1ccccc1OCCNCC(O)c1ccc(C)c(S(N)(=O)=O)c1` (stereo not shown) [Amosulalol, 5-[1-hydroxy-2-[2-(2-methoxyphenoxy)ethylamino]ethyl]-2-methylbenzenesulfonamide] the LD50 ([1]; iv, intravenous (tail vein), female mice) was 134 mg/kg, the LD50 ([1]; iv, intravenous (tail vein), male mice) was 104 mg/kg and the LD50 ([1]; po, female mice) was 5700 mg/kg. The LD50 ([1]; po, male mice) was 6500 mg/kg.

In the case of `CCCC(=O)N1CCCN(c2nc(N)c3cc(OC)c(OC)cc3n2)CC1` [bunazosin hydrochloride], the choroidal blood flow (choroidal blood flow) is listed as “can increase choroidal blood flow”.

With `CC(C)(C)NC[C@H](O)COc1nsnc1N1CCOCC1` [timolol maleate, reference compound] the “drop in intraocular pressure” value [2] was 2.4 mmHg and the “drop in intraocular pressure” value [3] was 2.4 mmHg.
